Data taken from patent US10717730B1, “Dihydroisoquinoline compound” (SUZHOU ARK BIOPHARMACEUTICAL CO., LTD., priority 2017, dated 2020).
Where a name gives a salt, the structure may show the parent alone.

Key:
[1] = Cytotoxicity CC50 (CellTiter-Glo); assay type: cell-based; conditions: human; HepG2.2.15 cells, four days
Protocol: HepG2.2.15 cells were seeded into 96-well white plate at 5000 cells/well and treated with serially diluted compounds. The plates were incubated in incubator with 5% CO2 at 37° C. for four days. The plate was taken out of incubator and adapted to room temperature for 30 minutes, followed by adding 25 μl CellTiter-Glo (Promega) reagent into each well and votexed at room temperature before being measured for luminance using spectrometer (Tecan Infinite® F200). The CC50 of each compound was defined as the compound concentration at which the treated well's cell viability is 50% compared to that of the DMSO treated well.

HBsAg = HBsAg assay (secreted HBsAg by CLIA in HepG2.2.15 cells); assay type: cell-based, hepatitis B virus (HBV); conditions: Hepatitis B virus, HepG2.2.15, 96 h
Protocol: HepG2.2.15 cells (Sells et al, Proc Natl Acad Sci USA. 1987 February; 84(4):1005-9), a constitutively HBV-expressing cell line, were cultured in DMEM medium supplemented with 10% FBS and 400 μg/mL G418, and maintained in 5% CO2 at 37° C.
HepG2.2.15 cells were seeded into 96-well plates at 3×10^4 cells/well. The next day, the cells were treated with a five-fold serial dilution series of the compound in DMSO. The final DMSO concentration in all wells was 0.5% and 0.5% DMSO was used as no drug control. After four days of incubation with compounds, the supernatants were harvested and measured for HBsAg concentration
The HBsAg chemiluminescence immunoassay (CLIA) kit was used to measure the levels of secreted HBsAg. Specifically, 50 μL of culture supernatant was transferred to the CLIA assay plate and 50 μL of enzyme conjugate reagent was added into each well. The plates were sealed and incubated for 1 hour at room temperature. The supernatant-enzyme-mixture was discarded and wells were washed for 6 times. The residual liquid was removed by plating on tissue paper. 25 μL of substrate A and B were added into each well. Luminance was measured using a spectrometer (Tecan Infinite® F200) after 10 minutes incubation. IC50 value was extrapolated based the dose-response curves generated from the data.

Row | Structure (SMILES) | CC50 at 4 days [1] [nM] | IC50 (HBsAg) [nM]
1 | COc1cc2c(cc1-c1cnc(C)s1)CC(C(C)(C)C)n1cc(C(=O)O)c(=O)cc1-2 (stereo not drawn) [Example 28, 6-(tert-butyl)-10-methoxy-9-(2-methylthiazol-5-yl)-2-oxo-6,7-dihydro-2H-pyrido[2,1-a]isoquinoline-3-carboxylic acid] | > 100000 | 0.2
2 | COc1cc2c(cc1-c1c(C)cnn1C)CC(C(C)(C)C)n1cc(C(=O)O)c(=O)cc1-2 (stereo not drawn) [Example 19, 6-(tert-butyl)-9-(1,4-dimethyl-1H-pyrazol-5-yl)-10-methoxy-2-oxo-6,7-dihydro-2H-pyrido[2,1-a]isoquinoline-3-carboxylic acid] | 50000 to 100000 | 68
3 | COc1cc2c(cc1-c1c[nH]nc1C)CC(C(C)(C)C)n1cc(C(=O)O)c(=O)cc1-2 (stereo not drawn) [Example 25, 6-(tert-butyl)-10-methoxy-9-(3-methyl-1H-pyrazol-4-yl)-2-oxo-6,7-dihydro-2H-pyrido[2,1-a]isoquinoline-3-carboxylic acid] | 50000 to 100000 | 7
4 | COc1cc2c(cc1-c1ccc(N3CCC(O)CC3)nc1)CC(C(C)(C)C)n1cc(C(=O)O)c(=O)cc1-2 (stereo not drawn) [Example 51, 6-(tert-butyl)-9-(6-(4-hydroxypiperidin-1-yl)pyridin-3-yl)-10-methoxy-2-oxo-6,7-dihydro-2H-pyrido[2,1-a]isoquinoline-3-carboxylic acid] | > 100000 | 0.8
5 | COc1cc2c(cc1-c1ccc(N3CCC3)nc1)CC(C(C)(C)C)n1cc(C(=O)O)c(=O)cc1-2 (stereo not drawn) [Example 50, 9-(6-(azetidin-1-yl)pyridin-3-yl)-6-(tert-butyl)-10-methoxy-2-oxo-6,7-dihydro-2H-pyrido[2,1-a]isoquinoline-3-carboxylic acid] | 50000 to 100000 | 0.5
6 | CCOC(=O)c1cn2c(cc1=O)-c1cc(OC)c(-c3ccc(=O)n(C(C)(C)C(=O)OCC)c3)cc1CC2C(C)(C)C (stereo not drawn) [Example 70, Ethyl 6-(tert-butyl)-9-(1-(1-ethoxy-2-methyl-1-oxoprop-2-yl)-6-oxo-1,6-dihydropyridin-3-yl)-10-methoxy-2-oxo-6,7-dihydro-2H-pyrido[2,1-a]isoquinoline-3-carboxylate] | 50000 to 100000 | 44
7 | COc1cc2c(cc1-c1cnn(CCC(=O)O)c1)CC(C(C)(C)C)n1cc(C(=O)O)c(=O)cc1-2 (stereo not drawn) [Example 22, 6-(tert-butyl)-9-(1-(2-carboxyethyl)-1H-pyrazol-4-yl)-10-methoxy-2-oxo-6,7-dihydro-2H-pyrido[2,1-a]isoquinoline-3-carboxylic acid] | 50000 to 100000 | 7
8 | CCOC(=O)CCn1cc(-c2cc3c(cc2OC)-c2cc(=O)c(C(=O)OCC)cn2C(C(C)(C)C)C3)cn1 (stereo not drawn) [Example 21, Ethyl 6-(tert-butyl)-9-(1-(3-ethoxy-3-oxopropyl)-1H-pyrazol-4-yl)-10-methoxy-2-oxo-6,7-dihydro-2H-pyrido[2,1-a]isoquinoline-3-carboxylate] | 50000 to 100000 | 16
9 | COc1cc2c(cc1-c1ccc(C)nc1)CC(C(C)(C)C)n1cc(C(=O)O)c(=O)cc1-2 (stereo not drawn) [Example 37, 6-(tert-butyl)-10-methoxy-9-(6-methylpyridin-3-yl)-2-oxo-6,7-dihydro-2H-pyrido[2,1-a]isoquinoline-3-carboxylic acid] | 50000 to 100000 | 9
10 | COc1cc2c(cc1-c1cnn(CCCC(=O)O)c1)CC(C(C)(C)C)n1cc(C(=O)O)c(=O)cc1-2 (stereo not drawn) [Example 24, 6-(tert-butyl)-9-(1-(3-carboxypropyl)-1H-pyrazol-4-yl)-10-methoxy-2-oxo-6,7-dihydro-2H-pyrido[2,1-a]isoquinoline-3-carboxylic acid] | 50000 to 100000 | 8
11 | CNc1ncc(-c2cc3c(cc2OC)-c2cc(=O)c(C(=O)O)cn2C(C(C)(C)C)C3)cn1 (stereo not drawn) [Example 60, 6-(tert-butyl)-10-methoxy-9-(2-(methylamino)pyrimidin-5-yl)-2-oxo-6,7-dihydro-2H-pyrido[2,1-a]isoquinoline-3-carboxylic acid] | 50000 to 100000 | 0.1
12 | CCOC(=O)Cn1cc(-c2cc3c(cc2OC)-c2cc(=O)c(C(=O)OCC)cn2C(C(C)(C)C)C3)ccc1=O (stereo not drawn) [Example 71, Ethyl 6-(tert-butyl)-9-(1-(2-ethoxy-2-oxoethyl)-6-oxo-1,6-dihydropyridin-3-yl)-10-methoxy-2-oxo-6,7-dihydro-2H-pyrido[2,1-a]isoquinoline-3-carboxylate] | > 100000 | 192
13 | COc1cc2c(cc1-c1cnn(CC(=O)O)c1)CC(C(C)(C)C)n1cc(C(=O)O)c(=O)cc1-2 (stereo not drawn) [Example 20, 6-(tert-butyl)-9-(1-carboxymethyl-1H-pyrazol-4-yl)-10-methoxy-2-oxo-6,7-dihydro-2H-pyrido[2,1-a]isoquinoline-3-carboxylic acid] | > 100000 | 7
14 | CCOC(=O)c1cn2c(cc1=O)-c1cc(OC)c(-c3ccc(=O)n(C(C)C(=O)OCC)c3)cc1CC2C(C)(C)C (stereo not drawn) [Example 74, Ethyl 6-(tert-butyl)-9-(1-(1-ethoxy-1-oxoprop-2-yl)-6-oxo-1,6-dihydro-pyridin-3-yl)-10-methoxy-2-oxo-6,7-dihydro-2H-pyrido[2,1-a]isoquinoline-3-carboxylate] | 50000 to 100000 | 129
15 | COc1cc2c(cc1-c1cnc(N3CCC3)nc1)CC(C(C)(C)C)n1cc(C(=O)O)c(=O)cc1-2 (stereo not drawn) [Example 69, 9-(2-(azetidin-1-yl)pyrimidin-5-yl)-6-(tert-butyl)-10-methoxy-2-oxo-6,7-dihydro-2H-pyrido[2,1-a]isoquinoline-3-carboxylic acid] | 50000 to 100000 | 5
16 | COc1cc2c(cc1-c1ccnn1C(C)C)CC(C(C)(C)C)n1cc(C(=O)O)c(=O)cc1-2 (stereo not drawn) [Example 18, 6-(tert-butyl)-9-(1-isopropyl-1H-pyrazol-5-yl)-10-methoxy-2-oxo-6,7-dihydro-2H-pyrido[2,1-a]isoquinoline-3-carboxylic acid] | 50000 to 100000 | 77
17 | COc1cc2c(cc1-c1ncn(CCCO)n1)CC(C(C)(C)C)n1cc(C(=O)O)c(=O)cc1-2 (stereo not drawn) [Example 32, 6-(tert-butyl)-9-(1-(3-hydroxypropyl)-1H-1,2,4-triazol-3-yl)-10-methoxy-2-oxo-6,7-dihydro-2H-pyrido[2,1-a]isoquinoline-3-carboxylic acid] | 50000 to 100000 | 97
18 | COc1cc2c(cc1-c1nncn1CCCO)CC(C(C)(C)C)n1cc(C(=O)O)c(=O)cc1-2 (stereo not drawn) [Example 31, 6-(tert-butyl)-9-(4-(3-hydroxypropyl)-4H-1,2,4-triazol-3-yl)-10-methoxy-2-oxo-6,7-dihydro-2H-pyrido[2,1-a]isoquinoline-3-carboxylic acid] | 50000 to 100000 | 826
19 | COc1cc2c(cc1-c1cnc(NC3CC3)nc1)CC(C(C)(C)C)n1cc(C(=O)O)c(=O)cc1-2 (stereo not drawn) [Example 64, 6-(tert-butyl)-9-(2-(cyclopropylamino)pyrimidin-5-yl)-10-methoxy-2-oxo-6,7-dihydro-2H-pyrido[2,1-a]isoquinoline-3-carboxylic acid] |  | 7
20 | COc1cc2c(cc1-c1cnn(CC(C)C)c1)CC(C(C)C)n1cc(C(=O)O)c(=O)cc1-2 (stereo not drawn) [Example 5, 9-(1-isobutyl-1H-pyrazol-4-yl)-6-isopropyl-10-methoxy-2-oxo-6,7-dihydro-2H-pyrido[2,1-a]isoquinoline-3-carboxylic acid] |  | 14
21 | CCOC(=O)CCn1cc(-c2cc3c(cc2OC)-c2cc(=O)c(C(=O)O)cn2C(C(C)(C)C)C3)cn1 (stereo not drawn) [Example 23, 6-(tert-butyl)-9-(1-(3-ethoxy-3-oxopropyl)-1H-pyrazol-4-yl)-10-methoxy-2-oxo-6,7-dihydro-2H-pyrido[2,1-a]isoquinoline-3-carboxylic acid] |  | 40
22 | CCc1ccc(-c2cc3c(cc2OC)-c2cc(=O)c(C(=O)O)cn2C(C(C)(C)C)C3)cc1 (stereo not drawn) [Example 34, 6-(tert-butyl)-9-(4-ethylphenyl)-10-methoxy-2-oxo-6,7-dihydro-2H-pyrido[2,1-a]isoquinoline-3-carboxylic acid] |  | 36
23 | COc1cc2c(cc1-c1cnn(C3CCNCC3)c1)CC(C(C)(C)C)n1cc(C(=O)O)c(=O)cc1-2 (stereo not drawn) [Example 17, 6-(tert-butyl)-10-methoxy-2-oxo-9-(1-(piperidin-4-yl)-1H-pyrazol-4-yl)-6,7-dihydro-2H-pyrido[2,1-a]isoquinoline-3-carboxylic acid hydrochloride] |  | 25
24 | COc1cc2c(cc1-c1cnc(F)cc1C)CC(C(C)(C)C)n1cc(C(=O)O)c(=O)cc1-2 (stereo not drawn) [Example 48, 6-(tert-butyl)-9-(6-fluoro-4-methylpyridin-3-yl)-10-methoxy-2-oxo-6,7-dihydro-2H-pyrido[2,1-a]isoquinoline-3-carboxylic acid] |  | 68
